Experimental data: ChEMBL document CHEMBL4414672, “Synthesis of certain benzothieno[3,2-d]pyrimidine derivatives as a selective SIRT2 inhibitors” (Eur J Med Chem, 2020)

Key:
Type in all cases: functional
MDA-MB-435 = assay: Growth inhibition of human MDA-MB-435 cells at 10^-5 M incubated for 48 hrs by sulforhodamine B assay; settings: MDA-MB-435, 48 h, read-out: GI
SR = assay: Growth inhibition of human SR cells at 10^-5 M incubated for 48 hrs by sulforhodamine B assay; settings: read-out: GI
CAKI-1 = assay: Growth inhibition of human Caki1 cells at 10^-5 M incubated for 48 hrs by sulforhodamine B assay; settings: CAKI-1, 48 h, read-out: GI
OVCAR-5 = assay: Growth inhibition of human OVCAR5 cells at 10^-5 M incubated for 48 hrs by sulforhodamine B assay; settings: OVCAR-5, 48 h, read-out: GI
T47D = assay: Growth inhibition of human T47D cells at 10^-5 M incubated for 48 hrs by sulforhodamine B assay; settings: read-out: GI
BT-549 = assay: Growth inhibition of human BT549 cells at 10^-5 M incubated for 48 hrs by sulforhodamine B assay; settings: BT-549, 48 h, read-out: GI
SF-295 = assay: Growth inhibition of human SF295 cells at 10^-5 M incubated for 48 hrs by sulforhodamine B assay; settings: SF-295, 48 h, read-out: GI
HT-29 = assay: Growth inhibition of human HT-29 cells at 10^-5 M incubated for 48 hrs by sulforhodamine B assay; settings: HT-29, 48 h, read-out: GI
SF-539 = assay: Growth inhibition of human SF539 cells at 10^-5 M incubated for 48 hrs by sulforhodamine B assay; settings: SF-539, 48 h, read-out: GI
Hs-578T = assay: Growth inhibition of human Hs 578T cells at 10^-5 M incubated for 48 hrs by sulforhodamine B assay; settings: read-out: GI
Malme-3M = assay: Growth inhibition of human MALME-3M cells at 10^-5 M incubated for 48 hrs by sulforhodamine B assay; settings: read-out: GI
SNB-19 = assay: Growth inhibition of human SNB19 cells at 10^-5 M incubated for 48 hrs by sulforhodamine B assay; settings: SNB-19, 48 h, read-out: GI
MCF7 = assay: Growth inhibition of human MCF7 cells at 10^-5 M incubated for 48 hrs by sulforhodamine B assay; settings: MCF7, 48 h, read-out: GI
UACC-257 = assay: Growth inhibition of human UACC257 cells at 10^-5 M incubated for 48 hrs by sulforhodamine B assay; settings: UACC-257, 48 h, read-out: GI
OVCAR-3 = assay: Growth inhibition of human OVCAR3 cells at 10^-5 M incubated for 48 hrs by sulforhodamine B assay; settings: OVCAR-3, 48 h, read-out: GI
TK-10 = assay: Growth inhibition of human TK10 cells at 10^-5 M incubated for 48 hrs by sulforhodamine B assay; settings: TK-10, 48 h, read-out: GI
HCC 2998 = assay: Growth inhibition of human HCC2998 cells at 10^-5 M incubated for 48 hrs by sulforhodamine B assay; settings: HCC 2998, 48 h, read-out: GI
SN12C = assay: Growth inhibition of human SN12C cells at 10^-5 M incubated for 48 hrs by sulforhodamine B assay; settings: read-out: GI
PC-3 = assay: Growth inhibition of human PC3 cells at 10^-5 M incubated for 48 hrs by sulforhodamine B assay; settings: PC-3, 48 h, read-out: GI
SW-620 = assay: Growth inhibition of human SW620 cells at 10^-5 M incubated for 48 hrs by sulforhodamine B assay; settings: SW-620, 48 h, read-out: GI
DU-145 = assay: Growth inhibition of human DU145 cells at 10^-5 M incubated for 48 hrs by sulforhodamine B assay; settings: DU-145, 48 h, read-out: GI
MDA-MB-468 = assay: Growth inhibition of human MDA-MB-468 cells at 10^-5 M incubated for 48 hrs by sulforhodamine B assay; settings: MDA-MB-468, 48 h, read-out: GI
A549 = assay: Growth inhibition of human A549/ATCC cells at 10^-5 M incubated for 48 hrs by sulforhodamine B assay; settings: A549, 48 h, read-out: GI
HCT-15 = assay: Growth inhibition of human HCT15 cells at 10^-5 M incubated for 48 hrs by sulforhodamine B assay; settings: HCT-15, 48 h, read-out: GI
UACC-62 = assay: Growth inhibition of human UACC62 cells at 10^-5 M incubated for 48 hrs by sulforhodamine B assay; settings: UACC-62, 48 h, read-out: GI
NCI-H226 = assay: Growth inhibition of human NCI-H226 cells at 10^-5 M incubated for 48 hrs by sulforhodamine B assay; settings: NCI-H226, 48 h, read-out: GI
MOLT-4 = assay: Growth inhibition of human MOLT4 cells at 10^-5 M incubated for 48 hrs by sulforhodamine B assay; settings: MOLT-4, 48 h, read-out: GI
EKVX = assay: Growth inhibition of human EKVX cells at 10^-5 M incubated for 48 hrs by sulforhodamine B assay; settings: read-out: GI
SNB-75 = assay: Growth inhibition of human SNB75 cells at 10^-5 M incubated for 48 hrs by sulforhodamine B assay; settings: SNB-75, 48 h, read-out: GI
LOX IMVI = assay: Growth inhibition of human LOXIMVI cells at 10^-5 M incubated for 48 hrs by sulforhodamine B assay; settings: read-out: GI
NCI-H522 = assay: Growth inhibition of human NCI-H522 cells at 10^-5 M incubated for 48 hrs by sulforhodamine B assay; settings: NCI-H522, 48 h, read-out: GI
SK-MEL-28 = assay: Growth inhibition of human SK-MEL-28 cells at 10^-5 M incubated for 48 hrs by sulforhodamine B assay; settings: SK-MEL-28, 48 h, read-out: GI
IGROV-1 = assay: Growth inhibition of human IGROV1 cells at 10^-5 M incubated for 48 hrs by sulforhodamine B assay; settings: IGROV-1, 48 h, read-out: GI
CCRF-CEM = assay: Growth inhibition of human CCRF-CEM cells at 10^-5 M incubated for 48 hrs by sulforhodamine B assay; settings: read-out: GI
A498 = assay: Growth inhibition of human A498 cells at 10^-5 M incubated for 48 hrs by sulforhodamine B assay; settings: A498, 48 h, read-out: GI
ACHN = assay: Growth inhibition of human ACHN cells at 10^-5 M incubated for 48 hrs by sulforhodamine B assay; settings: read-out: GI
OVCAR-4 = assay: Growth inhibition of human OVCAR4 cells at 10^-5 M incubated for 48 hrs by sulforhodamine B assay; settings: OVCAR-4, 48 h, read-out: GI
NCI-H322M = assay: Growth inhibition of human NCI-H322M cells at 10^-5 M incubated for 48 hrs by sulforhodamine B assay; settings: read-out: GI
COLO 205 = assay: Growth inhibition of human COLO205 cells at 10^-5 M incubated for 48 hrs by sulforhodamine B assay; settings: COLO 205, 48 h, read-out: GI

Row | Structure (SMILES) | inhibition of growth at 10 µM (MDA-MB-435) [%] | inhibition of growth at 10 µM (SR) [%] | inhibition of growth at 10 µM (CAKI-1) [%] | inhibition of growth at 10 µM (OVCAR-5) [%] | inhibition of growth at 10 µM (T47D) [%] | inhibition of growth at 10 µM (BT-549) [%] | inhibition of growth at 10 µM (SF-295) [%] | inhibition of growth at 10 µM (HT-29) [%] | inhibition of growth at 10 µM (SF-539) [%] | inhibition of growth at 10 µM (Hs-578T) [%] | inhibition of growth at 10 µM (Malme-3M) [%] | inhibition of growth at 10 µM (SNB-19) [%] | inhibition of growth at 10 µM (MCF7) [%] | inhibition of growth at 10 µM (UACC-257) [%] | inhibition of growth at 10 µM (OVCAR-3) [%] | inhibition of growth at 10 µM (TK-10) [%] | inhibition of growth at 10 µM (HCC 2998) [%] | inhibition of growth at 10 µM (SN12C) [%] | inhibition of growth at 10 µM (PC-3) [%] | inhibition of growth at 10 µM (SW-620) [%] | also measured
1 | N=C1Nc2c(sc3ccc(Cl)cc23)C(c2cccc(Br)c2)N1 (stereo not drawn) | 1.88 | 22.4 | 20.5 | -3.33 | 11.3 | -21.8 | -3.08 | -3.97 | -8.29 | -4.14 | 4.36 | 2.72 | 25.6 | 1.22 | 0.84 | -23.2 | -13.8 | 6.52 | 10.2 | -3.61 | inhibition of growth at 10 µM (DU-145): -10.7%; inhibition of growth at 10 µM (MDA-MB-468): 13.6%; inhibition of growth at 10 µM (A549): 1.98%; inhibition of growth at 10 µM (HCT-15): -3.08%; inhibition of growth at 10 µM (UACC-62): 16.5%; inhibition of growth at 10 µM (NCI-H226): 21.6%; inhibition of growth at 10 µM (MOLT-4): 7.81%; inhibition of growth at 10 µM (EKVX): 14.5%; inhibition of growth at 10 µM (SNB-75): 14.4%; inhibition of growth at 10 µM (LOX IMVI): 1.33%; inhibition of growth at 10 µM (NCI-H522): 12.2%; inhibition of growth at 10 µM (SK-MEL-28): -17.9%; inhibition of growth at 10 µM (IGROV-1): 13%; inhibition of growth at 10 µM (CCRF-CEM): -20.7%; inhibition of growth at 10 µM (A498): -4.39%; inhibition of growth at 10 µM (ACHN): 7.06%; inhibition of growth at 10 µM (OVCAR-4): 6.46%; inhibition of growth at 10 µM (NCI-H322M): 10.3%; inhibition of growth at 10 µM (COLO 205): -0.42%
2 | NNC1=Nc2c(sc3ccc(Cl)cc23)C(c2cccc([N+](=O)[O-])c2)N1 (stereo not drawn) | -7.56 | 1.98 | 18.5 | -5.19 | 12.8 | -17.8 | -3.08 | -13.5 | -1.12 | -2.75 | -5 | -1.03 | 18.1 | -0.19 | -1.38 | -18.2 | -1.26 | 1.02 | 15.2 | -6.43 | inhibition of growth at 10 µM (DU-145): -9.18%; inhibition of growth at 10 µM (MDA-MB-468): 7.99%; inhibition of growth at 10 µM (A549): -4.45%; inhibition of growth at 10 µM (HCT-15): -5.02%; inhibition of growth at 10 µM (UACC-62): 4.25%; inhibition of growth at 10 µM (NCI-H226): 18.4%; inhibition of growth at 10 µM (MOLT-4): 13%; inhibition of growth at 10 µM (EKVX): 16.9%; inhibition of growth at 10 µM (SNB-75): 10.7%; inhibition of growth at 10 µM (LOX IMVI): 2.22%; inhibition of growth at 10 µM (NCI-H522): 7.13%; inhibition of growth at 10 µM (SK-MEL-28): -26.6%; inhibition of growth at 10 µM (IGROV-1): 23.8%; inhibition of growth at 10 µM (CCRF-CEM): -19.8%; inhibition of growth at 10 µM (A498): -27.2%; inhibition of growth at 10 µM (ACHN): 6.37%; inhibition of growth at 10 µM (OVCAR-4): 1.81%; inhibition of growth at 10 µM (NCI-H322M): 4.45%; inhibition of growth at 10 µM (COLO 205): -1.26%
